Test results taken from paper PMC4697445 (Journal of medicinal chemistry, 2015).
Read-outs that look alike come from different tables or passages of the source.

Tests used:
Biodistribution in rats = format: in vivo, male Sprague-Dawley rats; conditions: rat; for in vivo metabolic defluorination (bone activity): 5 to 60 min p.i.; for blood uptake / bone uptake / brain uptake / fat uptake / kidney uptake / liver uptake / muscle uptake: iv, mean ± SD, n = 4
PDE10A [1] = target: PDE10A (Rattus norvegicus, UniProt Q9QYJ6); conditions: by 30 min p.i.
PDE10A (Rattus norvegicus, UniProt Q9QYJ6), sequence (Q9QYJ6 whole entry): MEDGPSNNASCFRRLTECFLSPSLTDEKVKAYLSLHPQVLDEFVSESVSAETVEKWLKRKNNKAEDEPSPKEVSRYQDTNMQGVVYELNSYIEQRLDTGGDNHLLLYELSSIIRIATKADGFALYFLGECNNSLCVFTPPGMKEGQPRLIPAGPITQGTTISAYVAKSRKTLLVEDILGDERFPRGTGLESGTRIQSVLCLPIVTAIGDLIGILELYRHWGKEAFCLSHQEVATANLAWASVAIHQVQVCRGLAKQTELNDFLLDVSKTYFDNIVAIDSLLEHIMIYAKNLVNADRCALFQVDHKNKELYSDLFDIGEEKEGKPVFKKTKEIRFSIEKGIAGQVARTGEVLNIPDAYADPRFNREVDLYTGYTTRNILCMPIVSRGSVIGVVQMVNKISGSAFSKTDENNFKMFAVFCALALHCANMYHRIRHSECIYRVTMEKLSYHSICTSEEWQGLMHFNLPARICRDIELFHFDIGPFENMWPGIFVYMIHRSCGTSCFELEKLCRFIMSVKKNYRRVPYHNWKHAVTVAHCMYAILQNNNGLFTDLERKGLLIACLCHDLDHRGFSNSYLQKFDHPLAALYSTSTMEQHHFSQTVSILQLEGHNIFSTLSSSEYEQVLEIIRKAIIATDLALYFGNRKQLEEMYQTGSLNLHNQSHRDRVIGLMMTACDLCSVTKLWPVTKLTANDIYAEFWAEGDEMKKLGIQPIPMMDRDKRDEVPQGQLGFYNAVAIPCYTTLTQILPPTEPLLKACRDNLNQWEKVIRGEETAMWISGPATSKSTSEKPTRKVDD

PDE10A [2] = tested on: PDE10A

Structure (SMILES) | in vivo metabolic defluorination (bone activity) (Biodistribution in rats) | blood uptake (Biodistribution in rats; 5 min p.i.) [%ID/g] | bone uptake (Biodistribution in rats; 5 min p.i.) [%ID/g] | brain uptake (Biodistribution in rats; 5 min p.i.) [%ID/g] | fat uptake (Biodistribution in rats; 5 min p.i.) [%ID/g] | kidney uptake (Biodistribution in rats; 5 min p.i.) [%ID/g] | liver uptake (Biodistribution in rats; 5 min p.i.) [%ID/g] | muscle uptake (Biodistribution in rats; 5 min p.i.) [%ID/g] | bone uptake (Biodistribution in rats; 30 min p.i.) [%ID/g] | brain uptake (Biodistribution in rats; 30 min p.i.) [%ID/g] | fat uptake (Biodistribution in rats; 30 min p.i.) [%ID/g] | kidney uptake (Biodistribution in rats; 30 min p.i.) [%ID/g] | liver uptake (Biodistribution in rats; 30 min p.i.) [%ID/g] | muscle uptake (Biodistribution in rats; 30 min p.i.) [%ID/g] | bone uptake (Biodistribution in rats; 60 min p.i.) [%ID/g] | brain uptake (Biodistribution in rats; 60 min p.i.) [%ID/g] | fat uptake (Biodistribution in rats; 60 min p.i.) [%ID/g] | kidney uptake (Biodistribution in rats; 60 min p.i.) [%ID/g] | liver uptake (Biodistribution in rats; 60 min p.i.) [%ID/g] | muscle uptake (Biodistribution in rats; 60 min p.i.) [%ID/g] | other results
Cn1cc(-c2ccncc2)c(-c2ccc(OCc3cc(F)c4ccccc4n3)cc2)n1 [Compound 18a, 4-Fluoro-2-((4-(1-methyl-4-(pyridin-4-yl)-1H-pyrazol-3-yl)-phenoxy)methyl)quinoline] | undergo in vivo metabolic defluorination in rodents | – | – | – | – | – | – | – | – | – | – | – | – | – | – | – | – | – | – | – | –
Cn1cc(-c2ccncc2)c(-c2ccc(OCc3cc([18F])c4ccccc4n3)cc2)n1 [[^18F]18a, 4-(Fluoro-^18F)-2-((4-(1-methyl-4-(pyridin-4-yl)-1H-pyrazol-3-yl)phenoxy)methyl)quinoline] | – | 0.353 ± 0.063 | 0.522 ± 0.116 | 0.410 ± 0.063 | 0.404 ± 0.102 | 1.887 ± 0.296 | 6.87 ± 1.27 | 0.339 ± 0.053 | 4.035 ± 0.153 | 0.191 ± 0.036 | 0.576 ± 0.154 | 1.034 ± 0.131 | 3.00 ± 0.91 | 0.236 ± 0.019 | 6.300 ± 0.314 | 0.125 ± 0.009 | 0.477 ± 0.099 | 0.533 ± 0.119 | 1.60 ± 0.87 | 0.092 ± 0.010 | blood uptake (Biodistribution in rats; 30 min p.i.): 0.376 ± 0.033 %ID/g; blood uptake (Biodistribution in rats; 60 min p.i.): 0.150 ± 0.021 %ID/g; ratio of activity in the striatum versus nontarget brain regions (PDE10A [1]): > 2 fold
Cn1cc(-c2ccncc2)c(-c2ccc(OCc3cc(OCCOCCOCC[18F])c4ccccc4n3)cc2)n1 [[^18F]18g] | appeared more stable to in vivo defluorination | 0.699 ± 0.090 | 0.487 ± 0.044 | 0.353 ± 0.052 | 0.225 ± 0.086 | 5.969 ± 0.744 | 4.74 ± 1.10 | 0.419 ± 0.090 | 0.441 ± 0.049 | 0.509 ± 0.038 | 0.254 ± 0.051 | 1.793 ± 0.291 | 1.53 ± 0.49 | 0.488 ± 0.086 | 0.490 ± 0.035 | 0.421 ± 0.028 | 0.123 ± 0.021 | 1.037 ± 0.170 | 0.527 ± 0.068 | 0.379 ± 0.027 | blood uptake (Biodistribution in rats; 30 min p.i.): 0.771 ± 0.061 %ID/g; blood uptake (Biodistribution in rats; 60 min p.i.): 0.646 ± 0.045 %ID/g
Cn1cc(-c2ccncc2)c(-c2ccc(OCc3cc(CF)c4ccccc4n3)cc2)n1 [Compound 18b, 4-(Fluoromethyl)-2-((4-(1-methyl-4-(pyridin-4-yl)-1H-pyrazol-3-yl)phenoxy)methyl) quinoline] | undergo in vivo metabolic defluorination in rodents | – | – | – | – | – | – | – | – | – | – | – | – | – | – | – | – | – | – | – | –
Cn1cc(-c2ccncc2)c(-c2ccc(OCc3cc(CCC[18F])c4ccccc4n3)cc2)n1 [[^18F]18c, 4-(3-(Fluoro-^18F)propyl)-2-((4-(1-methyl-4-(pyridin-4-yl)-1H-pyrazol-3-yl)phenoxy)methyl) quinoline] | – | 0.459 ± 0.049 | 0.222 ± 0.014 | 0.114 ± 0.015 | 0.220 ± 0.100 | 2.471 ± 0.487 | 9.99 ± 1.27 | 0.223 ± 0.067 | 1.418 ± 0.182 | 0.046 ± 0.006 | 0.491 ± 0.035 | 1.364 ± 0.077 | 5.67 ± 0.73 | 0.178 ± 0.016 | 2.037 ± 0.303 | 0.026 ± 0.005 | 0.368 ± 0.077 | 1.216 ± 0.180 | 6.79 ± 2.49 | 0.103 ± 0.030 | ratio of activity in the striatum versus nontarget brain regions (PDE10A [1]): > 2 fold
Cn1cc(-c2ccncc2)c(-c2ccc(OCc3cc(COCC[18F])c4ccccc4n3)cc2)n1 [[^18F]18e, 4-((2-(Fluoro-^18F)ethoxy)methyl)-2-((4-(1-methyl-4-(pyridin-4-yl)-1H-pyrazol-3-yl)phenoxy)methyl)quinoline] | appeared more stable to in vivo defluorination | 0.440 ± 0.038 | 0.133 ± 0.028 | 0.213 ± 0.039 | 0.139 ± 0.031 | 0.981 ± 0.163 | 3.99 ± 0.82 | 0.155 ± 0.040 | 0.170 ± 0.030 | 0.353 ± 0.021 | 0.139 ± 0.037 | 0.632 ± 0.123 | 0.987 ± 0.038 | 0.265 ± 0.117 | 0.337 ± 0.072 | 0.343 ± 0.033 | 0.066 ± 0.018 | 0.485 ± 0.045 | 0.554 ± 0.064 | 0.228 ± 0.058 | blood uptake (Biodistribution in rats; 30 min p.i.): 0.424 ± 0.074 %ID/g; blood uptake (Biodistribution in rats; 60 min p.i.): 0.401 ± 0.029 %ID/g
Cn1cc(-c2ccncc2)c(-c2ccc(OCc3nc4ccccc4cc3OCC[18F])cc2)n1 [[^18F]20a, 3-((2-Fluoro-^18F)ethoxy)-2-((4-(1-methyl-4-(pyridin-4-yl)-1H-pyrazol-3-yl)phenoxy)methyl)-quinoline] | appeared more stable to in vivo defluorination | 0.343 ± 0.061 | 0.182 ± 0.003 | 0.092 ± 0.011 | 0.119 ± 0.021 | 1.789 ± 0.332 | 4.24 ± 0.74 | 0.166 ± 0.017 | 0.144 ± 0.006 | 0.129 ± 0.005 | 0.202 ± 0.023 | 1.022 ± 0.103 | 3.17 ± 0.55 | 0.156 ± 0.014 | 0.224 ± 0.015 | 0.149 ± 0.013 | 0.124 ± 0.011 | 0.841 ± 0.087 | 1.80 ± 0.62 | 0.134 ± 0.009 | blood uptake (Biodistribution in rats; 30 min p.i.): 0.306 ± 0.016 %ID/g; blood uptake (Biodistribution in rats; 60 min p.i.): 0.287 ± 0.010 %ID/g; ratios of uptake in the striatum vs nontarget brain regions (PDE10A [2]; cynomolgus macaque microPET, by 40 min p.i.): > 3 fold; target:nontarget ratios (PDE10A [2]; cynomolgus macaque microPET, by 70 min p.i.): > 5 fold; visualization of striatum in microPET (PDE10A [2]; cynomolgus macaque, summed images 0 to 180 min): clear visualization of the PDE10A-enriched striatum; % peak 1 (radiometabolite, retention time ~3.5 min) (NHP plasma, 2 min p.i.): 0%; % peak 2 (radiometabolite, retention time ~7.5 min) (NHP plasma, 2 min p.i.): 0%; % parent (NHP plasma, 15 min p.i.): > 90%; % peak 1 (radiometabolite, retention time ~3.5 min) (NHP plasma, 15 min p.i.): 6%; % peak 2 (radiometabolite, retention time ~7.5 min) (NHP plasma, 15 min p.i.): 2%; % peak 1 (radiometabolite, retention time ~3.5 min) (NHP plasma, 30 min p.i.): 15%; % peak 2 (radiometabolite, retention time ~7.5 min) (NHP plasma, 30 min p.i.): 8%; % peak 1 (radiometabolite, retention time ~3.5 min) (NHP plasma, 60 min p.i.): 29%; % peak 2 (radiometabolite, retention time ~7.5 min) (NHP plasma, 60 min p.i.): 14%; % peak 1 (radiometabolite, retention time ~3.5 min) (NHP plasma, 90 min p.i.): 39%; % peak 2 (radiometabolite, retention time ~7.5 min) (NHP plasma, 90 min p.i.): 14%; radioactivity of arterial blood found in the plasma (plasma separated from packed red cells): 65–75%; ratio of activity in the striatum versus nontarget brain regions (PDE10A [1]): > 2 fold
Cn1cc(-c2ccncc2)c(-c2ccc(OCc3cc(CCCF)c4ccccc4n3)cc2)n1 [Compound 18c, 4-(3-Fluoropropyl)-2-((4-(1-methyl-4-(pyridin-4-yl)-1H-pyrazol-3-yl)phenoxy)methyl) quinoline] | undergo in vivo metabolic defluorination in rodents | – | – | – | – | – | – | – | – | – | – | – | – | – | – | – | – | – | – | – | –
Cn1cc(-c2ccncc2)c(-c2ccc(OCc3cc(C[18F])c4ccccc4n3)cc2)n1 [[^18F]18b, 4-((Fluoro-^18F)methyl)-2-((4-(1-methyl-4-(pyridin-4-yl)-1H-pyrazol-3-yl)phenoxy)methyl) quinoline] | – | 0.471 ± 0.040 | 0.421 ± 0.063 | 0.128 ± 0.012 | 0.343 ± 0.153 | 1.799 ± 0.207 | 10.16 ± 1.86 | 0.227 ± 0.042 | 4.055 ± 1.305 | 0.094 ± 0.023 | 0.352 ± 0.081 | 1.351 ± 0.216 | 4.01 ± 1.34 | 0.174 ± 0.042 | 5.620 ± 1.132 | 0.069 ± 0.008 | 0.222 ± 0.029 | 0.573 ± 0.134 | 3.10 ± 0.61 | 0.107 ± 0.032 | blood uptake (Biodistribution in rats; 30 min p.i.): 0.416 ± 0.062 %ID/g; blood uptake (Biodistribution in rats; 60 min p.i.): 0.201 ± 0.026 %ID/g; ratio of activity in the striatum versus nontarget brain regions (PDE10A [1]): > 2 fold
